Measured values taken from BindingDB's records for doi:10.7270/Q23F4N3R (Burnham Center For Chemical Genomics, 2011).
Where a name gives a salt, the structure may show the parent alone. Where a SMILES comes first, the peptide text is derived from it. Bridges are numbered along the chain shown (N, C = ends). [ ]: non-standard residue; d: D form. The star is where a group is joined. X1 = CCC(C)C(N)C1=NC(C(=O)*)CS1; dOrn = NCCC[C@@H](N)C(=O)O

Test: HK1 enzyme inhibitors – biochemical, selectivity assay for HKDC1 inhibitor project, dose response (AID 504763)
[1] = inactive by the depositor's call

Structure (SMILES)	IC50 [µM]	IC50 [1] [µM]
COc1ccc(OC)c(N2C(=O)C(=Cc3ccco3)C(=O)NC2=S)c1 [MLS001197216]	> 80	
O=C(O)c1ccc(N=Cc2c(O)ccc3ccccc23)cc1 [MLS001205050]	70.8	
COC(=O)c1cc(C)nc2c1C(=O)C(=O)C=C2N1CCOCC1 [MLS001208989]	16.6	
CCc1ccc2c(c1)C(NC(C)=O)C(=O)N2CCN1CCOCC1 (stereo unspecified) [MLS001215951]	> 80	
CC(=O)NC1C(=O)N(CCN2CCOCC2)c2ccc(F)cc21 (stereo unspecified) [MLS001215963]	> 80	
CC(=O)NC1C(=O)N(CCN2CCOCC2)c2ccc(Cl)cc21 (stereo unspecified) [MLS001215975]	> 80	
CC(=O)NC1C(=O)N(CCN2CCOCC2)c2ccc(Br)cc21 (stereo unspecified) [MLS001215987]	> 80	
CCCCC(CC)CNC(=N)NC(=N)NCCCCCCNC(=N)NC(=N)NCC(CC)CCCC (stereo unspecified) [MLS002153995]	38.7	
CCC(C)C(N)C1=NC(C(=O)N[C@@H](CC(C)C)C(=O)N[C@H](CCC(=O)O)C(=O)N[C@H](C(=O)N[C@H]2CCCCNC(=O)[C@H](CC(N)=O)NC(=O)[C@@H](CC(=O)O)NC(=O)[C@H](Cc3c[nH]cn3)NC(=O)[C@@H](Cc3ccccc3)NC(=O)[C@H]([C@@H](C)CC)NC(=O)[C@@H](CCCN)NC2=O)[C@@H](C)CC)CS1 (stereo partly specified) [MLS002207255] (X1-L[dE]IK[dOrn]I[dF]H[dD]N; lactam 4-C)	> 80	
COC1=CC(=O)C=C(OC)C1=O [MLS002207260]	3.54	
Oc1c(Cl)c(N=CCc2ccccc2)c(O)c2ccccc12 [MLS002608293]	18.5	
Nc1c(Br)cc2c3c(cccc13)-c1ccccc1-2 [MLS002694423]	9.59	
Cc1[nH]c2c(=O)c3c(c(=O)c=2[nH]c1C)C1C=CC3CC1 [MLS002701599]	2.08	
COC1=CC(=O)c2c(ccc3ncnc(N)c23)C1=O [MLS002701780]	1.83	
COP(=O)(OC)c1ccc(NCc2cc(O)ccc2O)cc1 [MLS002702382]		26.2
COc1ccc(NC(=O)CSc2ccc(-c3ccco3)nn2)cc1OC [MLS-0374858.0001]	17.7	
CCN(CC)C(=O)c1ccc(C(=O)c2c(C)cc(C)cc2C)cc1 [N,N-diethyl-4-[oxo-(2,4,6-trimethylphenyl)methyl]benzamide]	> 80	
O=C(NC1=CC(=O)c2ccccc2C1=O)c1ccccc1 [N-(1,4-dioxo-2-naphthalenyl)benzamide]	4.01	
COc1ccc(NC(=O)CSc2ccc(-c3ccco3)nn2)c(OC)c1 [N-(2,4-dimethoxyphenyl)-2-[[6-(2-furanyl)-3-pyridazinyl]thio]acetamide]	5.55	
COc1ccc(NC(=O)CSc2ccc(-c3cccnc3)nn2)c(OC)c1 [N-(2,4-dimethoxyphenyl)-2-[[6-(3-pyridinyl)-3-pyridazinyl]thio]acetamide]		21.5
O=C(CSc1n[nH]c(-c2cccnc2)n1)Nc1ccc([N+](=O)[O-])cc1Br [N-(2-bromo-4-nitrophenyl)-2-[(5-pyridin-3-yl-1H-1,2,4-triazol-3-yl)sulfanyl]acetamide]	5.71	
Cc1cc2nnc(SCC(=O)Nc3cc(S(=O)(=O)N4CCOCC4)ccc3Cl)n2c2ccccc12 [N-(2-chloro-5-morpholin-4-ylsulfonylphenyl)-2-[(5-methyl-[1,2,4]triazolo[4,3-a]quinolin-1-yl)sulfanyl]acetamide]	18	
CCOc1ccccc1Nc1nnc(SCc2nnc(-c3cc(OC)c(OC)c(OC)c3)o2)s1 [N-(2-ethoxyphenyl)-5-[[5-(3,4,5-trimethoxyphenyl)-1,3,4-oxadiazol-2-yl]methylthio]-1,3,4-thiadiazol-2-amine]		21.8
O=S(=O)(Nc1ccc(O)c2ccccc12)c1cccs1 [N-(4-oxidanylnaphthalen-1-yl)thiophene-2-sulfonamide]		55.3

Structure (SMILES)	IC50 [µM]	IC50 [1] [µM]
N#Cc1c(SCC(=O)Nc2nc3ccc(Br)cc3s2)sc2c(O)cc(=O)[nH]c12 [N-(6-bromo-1,3-benzothiazol-2-yl)-2-[(3-cyano-5-hydroxy-7-oxo-4H-thieno[3,2-b]pyridin-2-yl)thio]acetamide]		25.9
Cc1cc(C(F)F)n2ncc(C(=O)NCCc3ccc(Cl)cc3)c2n1 [N-[2-(4-chlorophenyl)ethyl]-7-(difluoromethyl)-5-methylpyrazolo[1,5-a]pyrimidine-3-carboxamide]	9.04	
Cc1cc2cc(CCNC(=O)c3ccc(S(=O)(=O)N4CCCC4)cc3)c(O)nc2cc1C [N-[2-(6,7-dimethyl-2-oxo-1H-quinolin-3-yl)ethyl]-4-pyrrolidin-1-ylsulfonylbenzamide]	15	
CCN(CC)CCCNC(=O)c1c(O)c2ccccc2n(Cc2ccccc2)c1=O [N-[3-(diethylamino)propyl]-2-oxidanyl-4-oxidanylidene-1-(phenylmethyl)quinoline-3-carboxamide;hydrochloride]	> 80	
O=C(NC1=C(NC2CCS(=O)(=O)C2)C(=O)c2ccccc2C1=O)c1ccccc1 (stereo unspecified) [N-[3-[(1,1-dioxo-3-thiolanyl)amino]-1,4-dioxo-2-naphthalenyl]benzamide]	6.33	
O=C1C(Cl)=C(NC(=O)c2ccccc2)C(=O)C(Cl)=C1NC(=O)c1ccccc1 [N-[4-benzamido-2,5-bis(chloranyl)-3,6-bis(oxidanylidene)cyclohexa-1,4-dien-1-yl]benzamide]		39.2
O=S(=O)(Nc1cc(Sc2nc[nH]n2)c(O)c2ccccc12)c1ccccc1 [N-[4-oxidanyl-3-(1H-1,2,4-triazol-5-ylsulfanyl)naphthalen-1-yl]benzenesulfonamide]		57.8
CCOc1ccc2c(c1)C(NC(C)=O)C(=O)N2CCN1CCOCC1 (stereo unspecified) [N-[5-ethoxy-1-(2-morpholin-4-ylethyl)-2-oxo-3H-indol-3-yl]acetamide;hydrochloride]	> 80	
CC(=O)NC1C(=O)N(CCN2CCOCC2)c2ccc(C)cc21 (stereo unspecified) [N-[5-methyl-1-(2-morpholin-4-ylethyl)-2-oxidanylidene-3H-indol-3-yl]ethanamide]	> 80	
CCCCNC(=O)c1sc(=S)n2c1[nH]c(=O)c1ccccc12 [N-butyl-5-oxo-1-thioxo-4,5-dihydro[1,3]thiazolo[3,4-a]quinazoline-3-carboxamide]	16.1	
O=C1C(SCCO)=C(SCCO)C(=O)c2ccccc21 [NSC-95397]	8.11	
COc1ccc(OC)c2nc(O)c(CCNC(=O)c3cc4ccccc4o3)cc12 [SMR000018515]		23.8
Cc1cc2cc(CCNC(=O)c3ccc(S(=O)(=O)N4CCOCC4)cc3)c(O)nc2cc1C [SMR000025588]	11.5	
Cc1ccc(Nc2c3[nH]cccc-3c(=O)n2-c2ccccc2C)cc1C [SMR000028201]	> 80	
CCCc1nc2oc3c(NCCOCCO)ncnc3c2c2c1COC(C)(C)C2 [SMR000048002]	11.1	
O=C1C=C(Nc2ccccc2C(=O)O)c2ccccc2C1=O [SMR000123743]	16.9	
CCOC(=O)C1=C(Cc2ccc(OC)cc2)C(=O)c2ccccc2C1=O [SMR000136995]	12.8	
Oc1nc2ccccc2n2c(-c3ccccc3)nnc12 [SMR000162081]	19	
NC(=O)C1CCN(C2=C(Cl)C(=O)c3ccccc3C2=O)CC1 [SMR000180199]	> 80	
CCOC(=O)C1=C(c2ccc(OC)cc2)C(=O)c2ccccc2C1=O [SMR000185036]	2.44	
Cc1cc(C=C2C(=O)NC(=O)N(c3ccc(Cl)cc3)C2=O)c(C)n1-c1sc2c(c1C#N)CCCC2 [SMR000211212]	> 80	
CCc1nc2c(c(=O)c3ccccc3n2C)c(=O)n1-c1ccc(F)cc1 [SMR000221205]	8.41	
O=C1C=CC(=O)C(C2=C3C(=O)N(CCc4ccccc4)CC(=O)N3CCC2)=C1 [SMR000226463]	6.85	
NS(=O)(=O)c1ccc(N=Nc2c(=O)[nH]n3c(=O)c4c([nH]c23)CCCC4)cc1 [SMR000231775]	12.4	

Structure (SMILES)	IC50 [µM]	IC50 [1] [µM]
O=C1NC(=S)N(c2ccc(F)cc2)C(=O)C1=Cc1ccoc1 [SMR000270574]	> 80	
O=C1C=C(NCc2ccccc2)c2ccccc2C1=O [SMR000282064]	1.9	
N=C(NCc1ccc2c(c1)OCO2)NC(=O)c1ccccc1 [SMR000293067]	> 80	
Oc1ccc(O)c(Cc2nc3ccccc3[nH]2)c1 [SMR000298430]	7.03	
O=C(O)c1ccc(NC2=CC(=NS(=O)(=O)c3ccccc3)c3ccccc3C2=O)cc1 [SMR000313157]	1.63	
CC(=O)Nc1ccc(NC2=CC(=NS(=O)(=O)c3cccs3)c3ccccc3C2=O)cc1 [SMR000313158]	4.2	
O=C(/C=C/c1cccs1)Nc1scc(-c2ccccc2)c1C(=O)O [SMR000364116]	> 80	
O=C(O)c1ccc2ncsc2c1 [SMR000372672]	> 80	
Cn1c2ccccc2c(=O)c2c(=O)n(-c3ccc(F)cc3)c(-c3cccs3)nc21 [SMR000439524]	2.5	
Cc1nc2c(c(=O)c3ccccc3n2C)c(=O)n1-c1ccc(F)cc1 [SMR000439525]	8.78	
CC(C)c1nc2oc3c(NCCO)ncnc3c2c2c1COC(C)(C)C2 [SMR000439744]	2.82	
CC[C@H](C)C=C(C)/C=C/C1=CC2=C(Cl)C(=O)[C@@](C)(OC(C)=O)C(=O)C2=CO1 [SMR000470870]	> 80	
O=C1C=C(N2CCOCC2)c2ccccc2C1=O [SMR000516584]	1.27	
COc1cc(/C=C2/C(=O)NN(c3ccc(Cl)c(Cl)c3)C2=O)cc([N+](=O)[O-])c1O [SMR000554908]	> 80	
CCc1ccc(S(=O)(=O)N=C2C=C(Nc3cccc(C(=O)O)c3)C(=O)c3ccccc32)cc1 [SMR000620248]	5.83	
COc1ccc2cc(CCNC(=O)c3ccc(S(=O)(=O)N4CCCC4)cc3)c(O)nc2c1 [SMR000805966]	7.34	
Cc1cccc2c1=NC(=O)C=2NNC(=O)c1ccc(NS(=O)(=O)c2cccs2)cc1 [SMR001246714]	52.6	
O=C1C=CC(CN=Nc2ccc([N+](=O)[O-])cn2)C(O)=C1 (stereo unspecified) [SMR001527138]	> 80	
COC1=CC(=O)C(OC)=C(OC)C1=O [SMR001527280]	6.46	
C=c1c(NC(C)=O)c(O)c2nc3n(c2c1O)CCC=3OC(=O)COC [SMR001565176]	2.15	
COC1=CC(=O)C(C2CC(=O)c3c(O)cc(O)cc3O2)=CC1=O (stereo unspecified) [SMR001565628]		35.9
CN(C)c1ccc(Cc2cc3c(O)ccc(O)c3cc(Cc3ccc(N(C)C)cc3)c2=O)cc1 [SMR001565845]		73.6
COC(=O)c1ccc(CCc2cc(O)c(Br)cc2O)cc1 [SMR001565911]		23.2
